Assays:
[1] = target: CUL4A (Homo sapiens, UniProt Q13619); experiment: BPB-CUL4A AlphaLISA assay (cell free CUL4 inhibition assay); assay type: biochemical
Method: (§1) A BPB-CUL4A AlphaLISA assay was performed using the 54 compounds to determine their CUL4A inhibitory properties in vitro. Next, these 54 leads were tested for their cell-based inhibitory activity against CUL4A. A first cell-based assay involved the inhibition of DNA damage-binding protein 2 (DDB2) degradation in mouse embryonic fibroblast (MEF) cells in vitro. To determine the specificity of the compounds, another cell-based assay was performed to determine the inhibition of IKBa degradation in HeLa cells in vitro. Preferably, the compounds show high DDB2 inhibition and less inhibition of IKBa degradation. IkBa is a target of […], and this assay provides insight into the specificity of the compounds. These tests led to the selection of three active compounds that passed inhibition and selectivity thresholds and, thus, were suitable for use in cosmetic compositions. These were thymoquinone, lapachol and myrtucommulone C.
The Table below reports the ability of compounds to disrupt CUL4A activity in vitro (in a cell free CUL4 inhibition assay) ascertained from the BPB-CUL4A AlphaLISA assay. Activity above 30% was set to distinguish true hits from false positives.

[2] = target: T1, CUL4A (Mus musculus, UniProt Q3TCH7); experiment: cell-based assay, inhibition of DDB2 degradation in MEF cells after UV; settings: DDB2 remaining after UV treatment over baseline compared to DMSO control
T1 construct: endogenous in cells; host or cells: mouse embryonic fibroblast (MEF) cells
T1 sequence (Q3TCH7 whole entry): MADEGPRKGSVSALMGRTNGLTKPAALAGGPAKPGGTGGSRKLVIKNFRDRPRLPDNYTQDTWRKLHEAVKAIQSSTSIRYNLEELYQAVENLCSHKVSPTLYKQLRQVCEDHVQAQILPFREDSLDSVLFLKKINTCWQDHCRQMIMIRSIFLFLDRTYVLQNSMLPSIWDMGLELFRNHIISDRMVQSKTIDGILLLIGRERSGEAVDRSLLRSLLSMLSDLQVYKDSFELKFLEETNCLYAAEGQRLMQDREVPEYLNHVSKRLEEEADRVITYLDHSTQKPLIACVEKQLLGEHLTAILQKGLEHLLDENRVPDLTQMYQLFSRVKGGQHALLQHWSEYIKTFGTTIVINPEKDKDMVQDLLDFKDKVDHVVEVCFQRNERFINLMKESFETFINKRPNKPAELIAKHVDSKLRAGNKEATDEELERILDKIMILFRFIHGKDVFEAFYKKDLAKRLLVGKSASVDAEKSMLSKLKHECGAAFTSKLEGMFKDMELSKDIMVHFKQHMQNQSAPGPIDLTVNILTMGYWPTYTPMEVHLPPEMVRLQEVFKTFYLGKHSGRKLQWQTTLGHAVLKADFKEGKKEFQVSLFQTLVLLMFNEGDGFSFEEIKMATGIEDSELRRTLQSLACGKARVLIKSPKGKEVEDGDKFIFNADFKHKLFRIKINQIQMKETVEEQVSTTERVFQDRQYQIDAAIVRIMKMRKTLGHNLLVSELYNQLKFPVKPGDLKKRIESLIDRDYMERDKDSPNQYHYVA
Method: as §1
In this cell-based assay, the % is DDB2 ([…]) remaining after UV treatment over baseline compared to a control group. In the DMSO control group, the DDB2 remaining % was between 20-30%.

[3] = tested on: human fibroblast cell; experiment: Human Fibroblast Cell Assay: CPD ELISA of DNA damage after UVB; assay type: cell-based; settings: UVB 35 mJ/cm^2, 12 hours
Method: Lastly, tests were conducted on human skin cells. The testing was performed using neonatal foreskin […], a type of skin cell that is a common model for skin testing across the cosmetic industry. The skin cells were purchased from Thermo Fisher Scientific Co. (NY) and grown in Dulbecco Modified Eagle Medium (DMEM) supplemented with 10% Fetal Bovine Serum (Thermo Fisher Scientific). Cultures were maintained at 37° C. within an air atmosphere of 5% carbon dioxide and about 95% humidity.
The skin cells were seeded in 12-well plates and incubated for 24 hours. After incubation, the cells were washed in […] (PBS) and irradiated with UVB at a dosage of 35 mJ/cm^2 using a Viber Lourmat BIO-Sun System (Marne-la-Vallee, France). The test compounds and control materials were added to the medium immediately following UVB irradiation; the treated mediums were allowed to continue for 12 hours at 37° C. under the air atmosphere with 5% carbon dioxide at about 95% humidity. In parallel, each test compound was added to non-irradiated cells as baseline controls. Untreated cells were used as negative controls. All treatments were performed in triplicate. Dosage levels for samples were 12.5 microMolar except lapachol dosed at 3 microMolar. Following incubation, the cells were washed with PBS, collected and stored at −80° C.
DNA was extracted from the collected cells using a QIAamp Blood Kit (QIAGEN, Calif., USA) in accordance with the manufacturer's protocol. The amounts of cyclobutane pyrimidine dimers (CPDs) in the various samples were determined by the CPD ELISA protocol. In accordance with this protocol, an OXISELECT® UV-Induced DNA Damage ELISA Kit (Cell Biolabs Inc., CA, USA) was employed for the testing done in accordance with the manufacturer's instructions. Amounts of CPD in UVB-treated samples were determined in percentage relative to the value of untreated fibroblasts. The greater the measured % CPD, the greater the DNA damage. Thus, in the Table below, the smaller the “Avg (% Untreated)” value, the better is the UVB damage induced inhibitory effect.
Mean standard deviation comparisons between data groups employed the GraphPad Prism 6.05 software (GraphPad Software, CA, USA). Statistical analysis was performed using ANOVA with Holm-Sidak's test or unpaired t-test with Welch's correction.

[4] = tested on: primary human keratinocytes; experiment: cytotoxicity assay (Cell Titer96 Aqueous One) on keratinocytes; assay type: cell-based; settings: 24 h
Method: (§2) Normal primary adult human keratinocytes derived from a donor were purchased from PromoCell (Heidelberg, Germany) and cultured in keratinocytes growth medium (Epilife+EDGS, Thermo Fisher Scientific, NY, USA). Keratinocytes cultures were maintained at 37° C. with 5% CO2 and ˜95% humidity.
(§3) Cytotoxicity was evaluated using the Cell Titer96 Aqueous One (Promega, Wis., USA) basic test according to manufacturer's instructions. Cells were seeded at a density of 10,000 cells/well in a 96-well plate and cultured overnight. Treatments with seven doses of compounds were carried out for 24 hours, in triplicates. Colorimetric analysis was performed using an absorbance of 490 nm. Inhibition of viability of more than 20% of the control values was considered cytotoxic.
The cytotoxicity assay on primary human keratinocytes from adult donor was performed after 24 h of culture in the presence of different concentrations of each compound, as indicated in FIG. 2A and Table 1.

[5] = tested on: primary human fibroblasts; experiment: cytotoxicity assay (Cell Titer96 Aqueous One) on fibroblasts; settings: 24 h
Method: Normal human dermal adult fibroblasts derived from a donor of were purchased from CELLnTec (Bern, Switzerland) and grown in DMEM supplemented with 10% FBS (Life Technologies, CA, USA). Fibroblasts cultures were maintained at 37° C. with 5% CO2 and ˜95% humidity.
as §3
The cytotoxicity assay on primary human fibroblasts from adult donor was performed after 24 h of culture in the presence of different concentrations of each compound, as indicated in FIG. 2B and Table 2.

[6] = tested on: human epidermal keratinocytes; experiment: microarray analysis of differential gene expression in keratinocytes; settings: for number of genes downregulated / number of genes upregulated: 24 h
Method: as §2
Normal primary human keratinocytes were seeded in 6-well plates and incubated for 24 h. Cells were then washed in PBS (Thermo Fisher Scientific) and reincubated for 24 more hours in the presence of RGN1518 and RGN1538 (each at two different concentrations), vehicle control, or positive control. Following treatment, the cells were washed with PBS, collected and stored frozen at −80° C. before RNA extraction.
RNA was extracted using a Qiagen RNeasy kit (Qiagen, CA, USA) according to manufacturer's protocol.
18 vials containing RNA isolated from human epidermal keratinocytes and 18 vials containing RNA isolated from human fibroblasts were shipped to Thermo Fisher Scientific, Advanced BioMedical Laboratories (Cinnaminson, N.J.) on dry ice for Affymetrix Human Clariom D array processing.
The differential gene expression was obtained using a threshold of 0.05 for statistical significance (p-value) and a log fold change of expression with absolute value of at least 1. Gene expression was further analysed using Differential Expression Analysis and Pathway Analysis iPathwayGuide) by Advaita Bioinformatics Services (Plymouth, Mich.) in the context of pathways obtained from the Kyoto Encyclopedia of Genes and Genomes (KEGG) database (Release 84.0+/10-26, October 17) (Kanehisa et al., 2000; Kanehisa et al., 2002), gene ontologies from the Gene Ontology Consortium database (2017 Nov. 6) (Ashburner et al., 2000; Gene Ontology Consortium, 2001), miRNAs from the miRBase (Release 21) and […] (Targetscan version:Mouse:7.1, Human:7.1) databases (Agarwal et al., 2015; Nam et al., 2014; Griffiths-Jones et al., 2008; Kozomara and Griffiths-Jones, 2014; Friedman et al., 2009; Grimson et al., 2007), and diseases from the KEGG database (Release 84.0+/10-26, October 17) (Kanehisa et al., 2000; Kanehisa et al., 2002). All references are available in the reports for bioinformatics analysis of differential gene expression provided by Advaita Bioinformatics Services at the following link.

[7] = tested on: human fibroblasts; experiment: microarray analysis of differential gene expression in fibroblasts; assay type: cell-based

Sequence of CUL4A (Homo sapiens, UniProt Q13619) (Q13619 whole entry, species assumed): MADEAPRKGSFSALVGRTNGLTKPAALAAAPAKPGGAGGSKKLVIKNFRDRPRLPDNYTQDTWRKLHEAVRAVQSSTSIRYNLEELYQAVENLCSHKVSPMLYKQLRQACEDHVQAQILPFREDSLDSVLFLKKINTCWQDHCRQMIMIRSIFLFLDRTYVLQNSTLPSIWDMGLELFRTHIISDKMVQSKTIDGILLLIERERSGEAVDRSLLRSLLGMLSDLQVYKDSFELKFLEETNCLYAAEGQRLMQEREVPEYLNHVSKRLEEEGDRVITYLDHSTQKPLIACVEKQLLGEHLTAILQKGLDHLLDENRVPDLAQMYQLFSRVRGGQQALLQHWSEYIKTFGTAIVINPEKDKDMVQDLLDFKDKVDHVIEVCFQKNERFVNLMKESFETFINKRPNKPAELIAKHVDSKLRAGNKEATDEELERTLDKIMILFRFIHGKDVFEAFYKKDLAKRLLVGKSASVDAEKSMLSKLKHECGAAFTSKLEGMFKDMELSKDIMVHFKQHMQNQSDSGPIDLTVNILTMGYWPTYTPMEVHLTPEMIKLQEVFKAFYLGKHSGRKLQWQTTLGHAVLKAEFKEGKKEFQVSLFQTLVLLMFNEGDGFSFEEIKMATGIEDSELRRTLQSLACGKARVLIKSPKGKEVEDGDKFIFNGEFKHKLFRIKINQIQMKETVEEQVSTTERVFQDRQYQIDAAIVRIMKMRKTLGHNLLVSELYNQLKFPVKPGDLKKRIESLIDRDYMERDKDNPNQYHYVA

For `CC(C)=CCC1=C(O)C(=O)c2ccccc2C1=O` [Lapachol, 2-hydroxy-3-(3-methylbut-2-enyl)naphthalene-1,4-dione], the “% Inhibitory Activity” value [1] was 34.4%, the “DDB2 remaining after UV (% of baseline)” value [2] was 80% and the “Avg (% Untreated)” value ([3]; 3 microMolar) was 2076%. The “Avg (% of untreated)” value ([4]; 15.5 μM) was 86%, the “Avg (% of untreated)” value ([4]; 31.1 μM) was 86% and the “Avg (% of untreated)” value ([4]; 62.25 μM) was 84%. The “concentrations that showed no cytotoxicity” value ([4]; cytotoxic = inhibition of viability of more than 20%) was “up to 62.25 μM”, the “Avg (% of untreated)” value ([5]; 15.5 μM) was 99% and the “Avg (% of untreated)” value ([5]; 31.1 μM) was 98%. The “Avg (% of untreated)” value ([5]; 62.25 μM) was 100%, the “concentrations that showed no cytotoxicity” value ([5]; unit not given) was “up to 62.25” and the “gene expression in Metabolism of Xenobiotics by Cytochrome P450 and Steroid Hormone Biosynthesis Pathways” value [6] was “induced differential gene expression”. The “number of genes downregulated” value ([6]; 31 μM, of 24905 assessed genes) was 556 genes, the “number of genes upregulated” value ([6]; 31 μM, of 24905 assessed genes) was 250 genes and the “number of genes downregulated” value ([6]; 62 μM) was 461 genes. For the same compound, the “number of genes upregulated” value ([6]; 62 μM) was 258 genes, the “expression of phase-I detoxification and steroid hormone biosynthesis genes” value ([6]; CYP1A1, CYP1B1, CYP2BG, GSTM3, AKR1C1, AKR1C2, AKR1C3, AKR1B15) was “upregulated” and the “expression of genes important for normal differentiation and function of skin” value ([6]; FGF2, CSF1, SLCO2A1, SERPINB1) was “upregulated”. The “expression of genes associated with inflammation” value ([6]; IL6, IL1R2, IL2RG, IL1RL1) was “upregulated”, the “expression of Cell Cycle Pathway genes” value ([6]; MAD2L1, CDC20, CCNE2, CCNA2, CCNB2, CCNB1, BUB1, PLK1, CDC25C, BUB1B, TTK, ORC1, MCM6) was “downregulated” and the “number of genes downregulated” value ([7]; 31 μM, 24 h, of 24905 genes) was 30 genes. The “number of genes upregulated” value ([7]; 31 μM, 24 h, of 24905 genes) was 104 genes, the “expression of RGCC and PTGS2 (regulation of fibroblast growth factor production)” value ([7]; at either concentration) was “upregulated” and the “number of genes involved in regulation of endothelial cell migration upregulated” value ([7]; out of 70 genes) was 3 genes.

With `CC(C)C(=O)c1c(O)c(C(C2=C(O)C(C)(C)C(=O)C(C)(C)C2=O)C(C)C)c(O)c2c1OC1=C(C(=O)C(C)(C)C(=O)C1(C)C)C2C(C)C` (centres unmarked) [Myrtucommulone C, myrtucommulone C] the “% Inhibitory Activity” value [1] was 48.9%, the “DDB2 remaining after UV (% of baseline)” value [2] was 115% and the “Avg (% Untreated)” value ([3]; 12.5 microMolar) was 1362%.

`CC1=CC(=O)C(C(C)C)=CC1=O` [Thymoquinone, 2-isopropyl-5-methylbenzo-1,4-quinone] was tested, and the “% Inhibitory Activity” value [1] was 70.4%, the “DDB2 remaining after UV (% of baseline)” value [2] was 85% and the “Avg (% Untreated)” value ([3]; 12.5 microMolar) was 2554%.

In the case of `NC(=O)c1cccnc1` [Niacinamide, reference compound], the “Avg (% Untreated)” value ([3]; 12.5 microMolar) is reported as 2216%, the “Avg (% of untreated)” value ([4]; 3.1 mM) is reported as 105% and the “Avg (% of untreated)” value ([4]; 6.2 mM) is reported as 106%. The “Avg (% of untreated)” value ([4]; 12.5 mM) was 104%, the “Avg (% of untreated)” value ([4]; 25 mM) was 108% and the “Avg (% of untreated)” value ([4]; 50 mM) was 95%. For the same compound, the “Avg (% of untreated)” value ([4]; 100 mM) was 58%, the “Avg (% of untreated)” value ([4]; 200 mM) was 46% and the “concentrations that showed no cytotoxicity” value [4] was “up to 50 mM”. The “Avg (% of untreated)” value ([5]; 3.1 mM) was 100%, the “Avg (% of untreated)” value ([5]; 6.2 mM) was 99% and the “Avg (% of untreated)” value ([5]; 12.5 mM) was 97%. The “Avg (% of untreated)” value ([5]; 25 mM) was 100%, the “Avg (% of untreated)” value ([5]; 50 mM) was 91% and the “Avg (% of untreated)” value ([5]; 100 mM) was 89%. For the same compound, the “Avg (% of untreated)” value ([5]; 200 mM) was 61%, the “concentrations that showed no cytotoxicity” value [5] was “up to 100 mM” and the “expression of ASS1 and PTGS2” value [6] was “affected”. For the same compound, the “expression of DNAJB9” value [6] was “downregulated”, the “expression of IL1RG and IL1RL1 receptors” value [6] was “no effect” and the “expression of IL6 and IL1RL1 receptor” value [6] was “upregulated”. The “expression of TYMS” value [6] was “downregulated”, the “expression of VEGFA” value [6] was “no effect” and the “gene expression in Metabolism of Xenobiotics by Cytochrome P450 and Steroid Hormone Biosynthesis Pathways” value [6] was “no major effect”. For the same compound, the “expression of cell cycle genes” value ([6]; CDK1, PLK1, RB1, CDC25C, CDC25B, MAD2L1, CDKN2B, CCNA2, MAD1L1, TTK, ZBTB17, RBL1, CCNB1, CCNB2, BUB1, CDC20, PTTG1, BUB1B) was “downregulated only some of the genes”, the “expression of Golgi apparatus genes with the exception of MGAT4A” value ([6]; COG6, ARFGAP3, IFT20) was “not affected” and the “expression of FGF2” value ([6]; compared with RGN1518) was “upregulated FGF2 to lesser extend”. For the same compound, the “Mineral Absorption Pathway” value [7] was “affected” and the “vascular wound healing, spreading of epidermal cells and vasculature development (gene profile)” value [7] was “no effect”.

From patent publication US11013673B2, “Cosmetic compositions containing quinones and their topical use on skin and hair” (Repairogen Corp, priority 2016, dated 2021)
